Tests used:
[1] = system: abdominal pain by irritation and distension of the colon; settings: rats, from 13.1 mg/kg and at doses of 26.2 mg/kg by subcutaneous route
[2] = system: formalin-induced short- and long-phase pain; settings: rat, dose of 39.3 mg/kg by subcutaneous route

CC[C@@](COC(=O)c1cc(OC)c(OC)c(OC)c1)(c1ccccc1)N(C)C(=O)OCc1ccc(OC)cc1 [Example 4]
activity in abdominal pain test [1]: demonstrated activity | short- and long-phase activity [2]: demonstrated short- and long-phase activity

Reference: US8217075B2, “2-amino-2-phenyl-alkanol derivatives, their preparation and pharmaceutical compositions containing them” (Oroxcell, priority 2008, dated 2012)
